Measured values reported in ChEMBL document CHEMBL5724796, “Tm Shift (DSF) assay results for EUbOPEN Chemogenomics Library” (2024).
Non-standard residues stand in square brackets, D forms with d. Residues, ends and D or L forms follow the SMILES beside them. *: point of attachment. Tyr(3-Cl) = N[C@@H](Cc1ccc(O)c(Cl)c1)C(=O)O; Benzoyl(3,5-Cl2) = O=C(c1cc(Cl)cc(Cl)c1)*; Lys(Et2) = CCN(CC)CCCC[C@H](N)C(=O)O; Gly(cPent) = N[C@H](C(=O)O)C1CCCC1; NH(propargyl) = C#CCN*

How the values were obtained:
Peregrin (Homo sapiens) = target: T1, Peregrin (Homo sapiens) (UniProt P55201); conditions: Compound concentration 20.0 uM
T1 sequence (whole entry): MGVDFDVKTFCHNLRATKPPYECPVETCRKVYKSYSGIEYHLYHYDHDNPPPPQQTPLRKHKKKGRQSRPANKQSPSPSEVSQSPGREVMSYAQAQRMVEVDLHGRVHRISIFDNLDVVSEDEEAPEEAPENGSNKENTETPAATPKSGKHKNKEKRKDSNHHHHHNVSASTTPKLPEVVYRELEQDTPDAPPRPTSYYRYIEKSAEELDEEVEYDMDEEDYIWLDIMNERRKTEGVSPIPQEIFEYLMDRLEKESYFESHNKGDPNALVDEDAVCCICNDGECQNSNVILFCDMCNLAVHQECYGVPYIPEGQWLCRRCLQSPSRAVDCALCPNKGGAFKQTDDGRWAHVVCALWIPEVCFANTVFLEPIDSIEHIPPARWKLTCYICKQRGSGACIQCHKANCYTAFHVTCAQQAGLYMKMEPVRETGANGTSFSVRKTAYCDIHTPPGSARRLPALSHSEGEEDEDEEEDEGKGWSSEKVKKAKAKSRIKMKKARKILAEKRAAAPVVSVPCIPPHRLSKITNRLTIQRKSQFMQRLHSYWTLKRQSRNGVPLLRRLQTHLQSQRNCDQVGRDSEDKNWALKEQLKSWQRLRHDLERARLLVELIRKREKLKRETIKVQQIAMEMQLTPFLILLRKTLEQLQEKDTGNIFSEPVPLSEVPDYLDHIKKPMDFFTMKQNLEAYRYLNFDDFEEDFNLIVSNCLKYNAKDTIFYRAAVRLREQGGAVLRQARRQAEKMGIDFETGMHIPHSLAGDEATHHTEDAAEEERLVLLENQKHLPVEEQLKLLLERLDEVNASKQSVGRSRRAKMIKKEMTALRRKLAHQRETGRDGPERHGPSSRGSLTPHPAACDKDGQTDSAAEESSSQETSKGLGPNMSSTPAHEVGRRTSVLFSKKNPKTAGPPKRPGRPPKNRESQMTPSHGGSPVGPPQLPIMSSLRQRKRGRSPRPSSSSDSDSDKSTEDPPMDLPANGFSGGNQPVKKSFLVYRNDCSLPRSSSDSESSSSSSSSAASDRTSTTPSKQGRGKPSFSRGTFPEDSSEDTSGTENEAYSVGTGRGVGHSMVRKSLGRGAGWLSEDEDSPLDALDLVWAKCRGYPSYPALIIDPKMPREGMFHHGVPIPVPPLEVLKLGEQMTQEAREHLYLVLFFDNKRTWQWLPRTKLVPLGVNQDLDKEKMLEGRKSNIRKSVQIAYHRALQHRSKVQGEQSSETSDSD

[1] = target: Fibroblast growth factor receptor 2 (Homo sapiens) (UniProt P21802); conditions: Compound concentration 20.0 uM
Fibroblast growth factor receptor 2 (Homo sapiens), sequence (P21802 22-821 limits assumed): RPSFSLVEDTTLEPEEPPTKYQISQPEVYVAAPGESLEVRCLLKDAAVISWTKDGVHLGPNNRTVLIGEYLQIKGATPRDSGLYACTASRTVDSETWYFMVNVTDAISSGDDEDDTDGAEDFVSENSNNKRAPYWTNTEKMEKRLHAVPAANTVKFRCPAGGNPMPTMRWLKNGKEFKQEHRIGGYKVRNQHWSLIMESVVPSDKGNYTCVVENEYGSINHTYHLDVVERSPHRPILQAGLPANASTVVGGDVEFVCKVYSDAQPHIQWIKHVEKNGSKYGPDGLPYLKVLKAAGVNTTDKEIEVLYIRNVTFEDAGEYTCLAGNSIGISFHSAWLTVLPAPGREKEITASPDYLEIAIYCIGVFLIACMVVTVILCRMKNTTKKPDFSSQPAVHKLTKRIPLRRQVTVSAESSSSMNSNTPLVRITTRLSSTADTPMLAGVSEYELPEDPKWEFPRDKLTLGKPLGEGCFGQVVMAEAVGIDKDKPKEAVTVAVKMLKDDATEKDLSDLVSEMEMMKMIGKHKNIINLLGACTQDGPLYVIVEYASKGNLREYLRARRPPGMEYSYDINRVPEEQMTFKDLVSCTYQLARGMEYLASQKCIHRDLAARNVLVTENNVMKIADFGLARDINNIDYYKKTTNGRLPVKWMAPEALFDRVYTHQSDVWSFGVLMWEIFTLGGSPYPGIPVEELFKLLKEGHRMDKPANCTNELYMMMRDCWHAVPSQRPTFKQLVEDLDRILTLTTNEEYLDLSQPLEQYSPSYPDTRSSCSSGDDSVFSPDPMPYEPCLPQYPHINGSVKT
Description: Thermal Shift Assay. Domain: start/stop: T457-E768

| SMILES | ΔTm (Peregrin (Homo sapiens)) [°C] | ΔTm [1] [°C] |
| --- | --- | --- |
| COc1ccc2c(c1)OC(C)(C)C(c1ccccc1)C2c1ccc(OCCN2CCCC2)cc1 (stereo not drawn) | -2.59 | 0.15 |
| C=C(C)[C@@H](CC=C(C)C)C[C@@]12C[C@@H](CC=C(C)C)C(C)(C)[C@@](CC=C(C)C)(C(=O)C(C(=O)c3ccc(O)c(O)c3)=C1O)C2=O | -4.72 | -5.95 |
| CC(C)Cn1c(=O)n(C)c(=O)c2c(C(=O)N3CC[C@@H](O)C3)c(Cc3ccnc4ccccc34)sc21 | 0.74 | 0.61 |
| Cc1nc(-c2cnc(NC(C)C)n(C)c2=O)ccc1Oc1ccnc(-c2cnn(C)c2)c1 | -1.33 | 0.6 |
| O=c1[nH]c(Oc2cnn(Cc3ccccc3)c2)nc2cnccc12 | 3.09 | -0.24 |
| CCCOc1cccc(Oc2cc3c(cc2NS(=O)(=O)c2cccc(C(=O)NCCOCCOCCOCC(=O)N[C@H](C(=O)N4C[C@H](O)C[C@H]4C(=O)NCc4ccc(-c5scnc5C)cc4)C(C)(C)C)c2)n(C)c(=O)n3C)c1 | 1.17 | -3.12 |
| O=[N+]([O-])c1ccc(CSc2ncnc3c2ncn3[C@@H]2O[C@H](CO)[C@@H](O)[C@H]2O)cc1 | 1.12 | 0.22 |
| CNC(=O)O[C@H]1COc2ccc(N3CCN(C4COC4)CC3)cc2[C@@H]1NC(=O)c1ccc(F)cc1 | -1.56 | 0.9 |
| Cc1cc(OCc2nnc(SC3CCCC3)n2-c2cccnc2)ccc1-c1ccc(S(C)(=O)=O)cc1 | -5.44 | -3.4 |
| CN1CCN(c2cc(C(=O)Nc3ncc(SCc4cccc(C(F)(F)F)c4)s3)ccn2)CC1 | -1.6 | 0.89 |
| CN(C)CCCN(CC[C@H](N)C(=O)O)C[C@H]1O[C@@H](n2cnc3c(N)ncnc32)[C@H](O)[C@@H]1O | -1.18 | -1.19 |
| Cc1sc(C(=O)c2cncnc2N[C@@H]2C[C@H](COS(N)(=O)=O)[C@@H](O)C2)cc1[C@@H]1NCCc2ccc(Cl)cc21 | -1.17 | 0.33 |
| CC(C)(C)OC(=O)Nc1ccc(CNc2nccc(Nc3cc(C(=O)OC(C)(C)C)[nH]n3)n2)cc1 | -1.32 | 1.22 |
| O=C(NO)c1cccc(C(=O)NCCc2ccccc2)c1 | -0.84 | 0.41 |
| O=C(c1cc(O)c(O)c([N+](=O)[O-])c1)c1ccccc1F | 1.4 | -0.06 |
| COc1cc(-c2cn(C)c(=O)c3cnccc23)cc(OC)c1CN(C)C | 6.51 | 0.18 |
| COC(=O)C1=C(C(=O)OC)[C@@]2([C@@H](Cc3ccc(C)cc3)Nc3ccccc3)C=C[C@@H]1O2 | -3.55 | 0.51 |
| Cc1nc(N)c2nnn(C[C@H]3CN(Cc4nccs4)CCO3)c2n1 | 0.82 | -0.39 |
| O=C(NCCCc1ccccc1)c1cccc(-c2cc(O)c3ncccc3c2)c1 | 3.29 | 0.19 |
| CC(C)C(=O)c1c(C(C)C)nn2ccccc12 | 0.32 | -0.49 |

| SMILES | ΔTm (Peregrin (Homo sapiens)) [°C] | ΔTm [1] [°C] |
| --- | --- | --- |
| CNc1nccc(CN([C@H]2CC[C@H](N)CC2)S(=O)(=O)c2ccc(S(=O)(=O)N(Cc3ccc(Cl)cc3)C3CCCC3)cc2)n1 | -1.21 | -1.14 |
| N#Cc1c(N)[nH]c2cc(/C=C/c3cccc(F)c3)ccc12 | 6.38 | 1.59 |
| O=C(NCCCCc1ccccc1)n1c(=O)oc2cc(-c3ccc(F)cc3)ccc21 | 2.4 | -0.32 |
| CCCCCCNC(=O)n1cc(F)c(=O)[nH]c1=O | 0.95 | 0.03 |
| CS(=O)(=O)Nc1ccc(-c2coc3cc(OCc4cccc(C(=O)O)c4)ccc3c2=O)cc1 | 1.08 | -0.06 |
| CN1CC(=O)N2[C@H](c3ccc4c(c3)OCO4)c3[nH]c4ccccc4c3C[C@@H]2C1=O | 0.06 | -0.7 |
| CC(C)Oc1ccc(C=O)cc1 | -0.07 | 0.13 |
| C[C@H]1CCCN1Cc1nc2cc(NC(=O)c3ccc4c(cnn4C)c3)ccc2[nH]1 | -1.47 | 0.51 |
| N[C@H]1CC[C@H](N[C@@H]2C[C@H]2c2ccccc2)CC1 | 1.23 | 0.55 |
| COc1ncc(C)c(-c2ccc3c(c2)[nH]c(=O)c2cnn([C@H]4CCOC4)c23)c1C | 0.86 | -0.58 |
| Cc1cc(Cl)cc(-c2c3sc(CN4C(=O)C5C(C4=O)C5(C)C)cc3nn2C)c1OC1CCNCC1 (stereo not drawn) | 0.52 | -0.72 |
| CC(=O)N[C@@H](CC(=O)O)C(=O)N[C@@H](CCC(=O)O)C(=O)N[C@H](C(=O)N[C@@H](CC(=O)O)C(=O)CCl)C(C)C | -1.75 | 0.6 |
| O=C(CCCCCCNC(=O)c1cnc(N(c2ccccc2)c2ccccc2)nc1)NO | -1.39 | -0.22 |
| COc1ncc(C)cc1CC[C@@](O)(CC(=O)O)C(=O)O | 1.67 | 0.32 |
| O=C(CCCCCCNC(=O)c1cnc(N(c2ccccc2)c2ccccc2Cl)nc1)NO | -1.49 | 0.65 |
| CC(=O)N[C@@H](Cc1ccc(O)cc1)C(=O)N[C@H](C(=O)N[C@@H](C)C(=O)N[C@H](C=O)CC(=O)O)C(C)C | -1.25 | 0.54 |
| N#Cc1ccc(-c2c3n(c4cccnc24)CCN(C2CC2)C3=O)cc1F | -0.31 | -0.59 |
| C[C@H](Nc1nc2c(cnn2C2CCCC2)c(=O)[nH]1)c1ccc(Cl)cc1 | 1.99 | 0.2 |
| O=C(c1cc(Cc2n[nH]c(=O)c3ccccc23)ccc1F)N1CCn2nc(C(F)(F)F)nc2C1 | 0.87 | -0.57 |
| Cc1nn2c(nc(O)c3cccnc32)c1C#N | 0.03 | -0.24 |

| SMILES | ΔTm (Peregrin (Homo sapiens)) [°C] | ΔTm [1] [°C] |
| --- | --- | --- |
| O=C(CCCCCCC(=O)Nc1ccc([C@H]2O[C@@H](CSc3nc(-c4ccccc4)c(-c4ccccc4)o3)C[C@@H](c3ccc(CO)cc3)O2)cc1)NO | 0 | -10.7 |
| O=C(COc1ccc(-c2oc3cc(O)c(C(=O)O)cc3c2C#Cc2cccc(Cl)c2)cc1)NC1CC1 | -1.44 | 0.52 |
| N#Cc1ccc([C@H]2CCCC[C@H]2O)cc1C(F)(F)F | -0.66 | -0.09 |
| CC(=O)N[C@@H](CC(C)C)C(=O)N[C@@H](CCC(=O)O)C(=O)N[C@@H](Cc1cnc[nH]1)C(=O)N[C@H](C=O)CC(=O)O (Ac-LEHD-aldehyde) | -1.22 | 0.53 |
| CC(C)n1nc(-c2cc3cc(O)ccc3[nH]2)c2c(N)ncnc21 | 1.52 | 4.67 |
| CN(C)NC(=O)CCC(=O)O | 0.25 | 0.18 |
| Nc1ncnc2nc(-c3ccc(N4CCOCC4)nc3)cc(-c3cccc(Br)c3)c12 | -0.37 | 0.52 |
| O=c1c2nnc(C3CCOCC3)n2cc(Br)n1CC1CCCC1 | -0.41 | -0.26 |
| C[C@H](c1nc2c(cnn2C2CCOCC2)c(=O)[nH]1)N1CC(Oc2ccccc2)C1 | 2.25 | -0.05 |
| CC(=O)N1CCN([C@H]2CCC[C@@H](NC(=O)c3cc4c(F)ccc(C)c4[nH]3)C2)CC1 | -1.02 | -2.8 |
| C#CCNC(=O)[C@H](CO)NC(=O)[C@H](CCCCN(CC)CC)NC(=O)[C@@H](NC(=O)[C@@H](NC(=O)[C@H](Cc1ccc(O)c(Cl)c1)NC(=O)c1cc(Cl)cc(Cl)c1)C1CCCC1)[C@@H](C)CC ({Benzoyl(3,5-Cl2)}-[Tyr(3-Cl)][Gly(cPent)]I[Lys(Et2)]S-{NH(propargyl)}) | 1.15 | -1.31 |
| CNCc1ccc(-c2cc3cc(F)cc(C(N)=O)c3o2)cc1 | 1.32 | 0.56 |
| CS(=O)(=O)N1CCN(C(=O)c2cnc3ccc(F)cc3c2-c2ccc(C3(C#N)CC3)cc2)CC1 | 0.38 | 0.1 |
| CS(=O)(=O)c1ccc(Oc2cc(F)cc(C#N)c2)c2c1[C@H](O)C(F)(F)C2 | 1.71 | -0.21 |
| CNc1nccc(CN(CC2CCNCC2)S(=O)(=O)c2ccc(S(=O)(=O)N(Cc3ccc(Cl)cc3)C3CCCC3)cc2)n1 | 1.3 | -0.24 |
| O=C(O)/C(S)=C/c1ccc(I)cc1 | -1.4 | -1 |
| N#Cc1ccc(N2N=C3c4ccc(C(=O)O)cc4CC[C@@H]3[C@@H]2C2CCCC2)cc1Cl | -8.37 | -1.06 |
| COc1ccc(CNc2nc(N3CCC[C@H]3CO)ncc2C(=O)NCc2ncccn2)cc1Cl | 0.12 | -0.2 |
| Cc1ncsc1-c1ccc([C@H](C)NC(=O)[C@@H]2C[C@@H](O)CN2C(=O)[C@@H](NC(=O)CNC(=O)c2ccc(F)c(-c3ccc(N4C[C@@H](C)N(C)[C@@H](C)C4)c(NC(=O)c4c[nH]c(=O)cc4C(F)(F)F)c3)c2)C(C)(C)C)cc1 | -0.15 | -4.38 |
